Measurements from US20210332024A1, “MODULATORS OF PIN1 ACTIVITY AND USES THEREOF” (Yeda Research and Development Co. Ltd., priority 2019, published 2021).

Key:
GST-Pin1 = GST-Pin1 (Homo sapiens, UniProt Q13526); assay: Fluorescence polarization (FP) competition assay; format: binding; settings: FP assay, competition with fluorescein-labeled peptide, 250 nM GST-Pin1; read-out: Ki (apparent)
Procedure: Binding affinity to Pin1 was determined using a fluorescence polarization assay to assess competition with an N-terminal fluorescein-labeled peptide (Bth-D-phosThr-Pip-Nal), which was obtained from JPT Peptide Technologies and Proteintech Group. The indicated concentrations of candidate compound were pre-incubated for 12 hours at 4° C. with a solution containing 250 nM glutathione S-transferase (GST)-Pin1, 5 nM of fluorescein-labeled peptide probe, 10 μg/ml bovine serum albumin, 0.01% Tween-20 and 1 mM DTT (dithiothreitol) in a buffer of 10 mM HEPES, 10 mM NaCl and 1% glycerol (pH 7.4). Measurements of FP were performed in black 384-well plates (Corning) using an EnVision™ reader. Apparent Ki values (under the tested conditions) obtained from the FP assay results were derived from the Kenakin Ki equation:
Kenakin Ki=(Lb)(EC50)(Kd)/(Lo)(Ro)+Lb(Ro−Lo+Lb−Kd)
Sittampalam G. S. et al., Eli Lilly & Company and the National Center for Advancing Translational Sciences, 2004].
Covalent labeling of Pin1 was confirmed to translate into enzyme inhibition via a fluorescence polarization (FP) competition assay using a FITC-labeled substrate mimetic peptide inhibitor, as well as a chymotrypsin-coupled PPIase assay, using procedures described in Wei et al. [Nat Med 2015, 21:457-466].
The fluorescent polarization assay was performed in a dose-dependent and time-dependent manner, in order to further characterize the kinetic parameters of Pin1-3 binding to Pin1.

catalytic domain of Pin1 = target: T1, catalytic domain of Pin1 (Homo sapiens, UniProt Q13526); assay: Intact protein LC/MS labeling of Pin1; format: binding
T1 construct: The purified catalytic domain of Pin1 was incubated with the fragment library
Procedure: 993 compounds were transferred to a 384-well plate working copy by combining 0.5 μl of 20 mM stock solution of four or five compounds per well. The catalytic domain of Pin1 (2 μM) in 20 mM Tris, 75 mM NaCl, pH 7.5 was incubated with 200 μM for each compound and moderately shaken for 24 hours at 4° C. The reaction was stopped by the addition of formic acid to 0.4% (v/v) final concentration.
Liquid chromatography/mass spectroscopy runs were performed on an Acquity™ UPLC® H-class system (Waters) in positive ion mode using electrospray ionization (ESI). UPLC separation was performed on a C4 column (300 Å, 1.7 μM, […]). The column was held at 40° C., and the autosampler at 10° C. Mobile solution A was 0.1% formic acid in water and mobile phase B was 0.1% formic acid in acetonitrile. Run flow was 0.4 ml/minute; and a gradient of 20% B for 2 minutes, increasing linearly to 60% B for 3 minutes, holding at 60% B for 1.5 minutes, changing to 0% B in 0.1 minute and holding at 0% for 1.4 minutes, was used. Desolvation temperature was 500° C. with a flow rate of 1000 liters/hour. The capillary voltage was 0.69 kV and cone voltage 46 V. Raw data was processed using OpenLynx™ software and deconvoluted using the MaxEnt tool. Labeling assignment was performed as described in Resnick et al. [J Am Chem Soc 2019, 141:8951-8968].
For the screening 2 μl of each of the 448 click products as 50 μM DMSO stocks were transferred into a 384-well plate working plate. 48 μl of catalytic domain of Pin1 (2 μM) in 20 mM Tris (pH 7.5) with 75 mM NaCl were added and moderately shaken and incubated for 15 minutes at room temperature. The reaction was stopped by the addition of formic acid to 0.4% (v/v) final concentration (20 μl). The mixtures were analyzed by liquid chromatography/mass spectroscopy analogously to the electrophile library incubations described herein. Hits were retrospectively analyzed by liquid chromatography/mass spectroscopy (LC-MS) to ensure reaction completion.
For each measured well, processed peaks were searched to match the mass of unlabeled protein or common small adducts of the unlabeled protein, which were found in the control sample or labeled protein. Labeling percentage for a compound was determined as the labeling of a specific compound divided by the overall detected protein species. Peaks whose mass could not be assigned were discarded from the overall labeling calculation. Data was analyzed using a python script for processing the MaxEnt-deconvoluted spectra. Peaks were normalized from ion counts to percentages, where the highest peak is defined as 100%. The unlabeled protein mass is deduced from a reference well that contains just the protein.
The purified catalytic domain of Pin1 was incubated with the fragment library (2 μM protein, 200 μM compound; 24 hours at 4° C.), followed by intact protein liquid chromatography/mass-spectrometry (LC/MS) to identify and quantify compound labeling. FIG. 1 depicts an example of a compound identified in this manner.
Based on the docking predictions, a total of 26 compounds that featured a range of small or bulky aliphatic, arylic, biphenylic or heterocyclic side-chains (structures depicted in FIG. 5), were synthesized or purchased. In order to identify potent binders, the irreversible labeling efficiency of these second-generation compounds was assessed alongside the original screening hits under more stringent conditions, with a 1:1 ratio of protein to compound (2 μM compound; 1 hour at room temperature).
For further optimization of the lipophilic moiety, an alkyne side chain-bearing analog was prepared, which was derivatized with 448 different azides using copper-catalyzed azide-alkyne cycloaddition (CuAAC).

MDA-MB-231 cells = assay: Cell viability assay (CellTiter-Glo); format: cell-based; settings: cell viability assay with MDA-MB-231 cells
Procedure: MDA-MB-231 cells grew in DMEM medium supplemented with 10% FCS (fetal calf serum), 1% PS (penicillin-streptomycin) and 1% L-glutamine (all from Biological Industries). Exclusion of mycoplasma contamination was monitored and conducted by test with MycoAlert™ kit (Lonza). Cells were trypsinized and counted, and 1000 cells/well were plated in 50 μl of growth medium into 384-well white TC plates (Greiner) using Multidrop™ 384 (Thermo Scientific) Washer Dispenser II. The number of viable cells was monitored using CellTiter-Glo® Luminescent kit (Promega) in accordance with the manufacturer's protocol. Luminescence was measured using luminescence module of PHERAstar™ FS plate reader (BMG Labtech). Data analysis was performed using GeneData 12 analytic software. Assay ready plate preparation: Compounds transferred into black microplates (Greiner 784900) using Labcyte Echo® acoustic dispensing technology. Assay ready plates were then sealed with heat seals. If not used immediately, plates were frozen at −20° C. and held in polypropylene boxes with silica-gel desiccant.
Exemplary Pin1-binding compounds were also tested for non-selective cytotoxicity in a viability assay against IMR90 lung fibroblasts.

[1] = Thiol reactivity assay (DTNB); format: physicochemical; settings: 200 μM compound, pH 7.4, 37° C.
Procedure: 50 μM DTNB (dithionitrobenzoic acid) was incubated with 200 μM TCEP (tris(2-carboxytehyl)phosphine) in 20 mM sodium phosphate buffer (pH 7.4) with 150 mM NaCl, for 5 minutes at room temperature, in order to obtain TNB^2− (thionitrobenzoate dianion). 200 μM compounds were subsequently added to the TNB^2−, followed by immediate UV absorbance measurement at 412 nm (at 37° C.). The UV absorbance was acquired every 15 minutes for 7 hours. The assay was performed in a 384-well plate using a Spark™ 10M plate reader (Tecan). Background absorbance of compounds was subtracted by measuring the absorbance at 412 nm of each compound under the same conditions without DTNB. Compounds were measured in triplicates. The data was fitted to a second order reaction equation such that the rate constant k is the slope of ln([A][B0]/[B][A0]), where [A0] and [B0] are the initial concentrations of the compound (200 μM) and TNB^2− (100 μM) respectively, and [A] and [B] are the remaining concentrations as a function of time, as determined from the spectrometric measurement. Linear regression using Prism® software was performed to fit the rate against the first four hours of measurements.
In order to estimate the influence of the various lipophilic moieties on “warhead” reactivity [Flanagan et al., J Med Chem 2014, 57:10072-10079; Lonsdale et al., J Chem Inf Model 2017, 57:3124-3137; Dahal et al., Medchemcomm 2016, 7:864-872], the thiol reactivity of the top ten binders of the second and third generation was assessed using a high-throughput assay previously applied to the entire fragment library, as described in Resnick et al. [J Am Chem Soc 2019, 141:8951-8968]. In brief, the second-order rate constant was evaluated for a model thiol, which reflects trends in general reactivity towards thiol groups.

[2] = 2 μM Pin1 with 2 μM test compound for 1 hour at room temperature
[3] = 2 μM Pin1 with 2 μM test compound for 15 minutes at room temperature

T1 sequence (Q13526 52-163 limits assumed): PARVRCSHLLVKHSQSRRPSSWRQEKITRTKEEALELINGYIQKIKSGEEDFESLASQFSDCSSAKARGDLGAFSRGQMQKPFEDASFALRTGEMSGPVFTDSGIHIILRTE
Sequence of GST-Pin1 (Q13526 whole entry): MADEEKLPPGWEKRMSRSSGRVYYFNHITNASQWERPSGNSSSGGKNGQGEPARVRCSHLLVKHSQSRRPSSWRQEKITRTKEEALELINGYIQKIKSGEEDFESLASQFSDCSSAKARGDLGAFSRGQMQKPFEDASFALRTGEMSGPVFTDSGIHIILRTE

| SMILES | Ki (GST-Pin1) [µM] | Labeling [%] (catalytic domain of Pin1; [2]) | EC50 (MDA-MB-231 cells) [µM] | Reactivity Log k [1] | Reactivity k [1] [M⁻¹ s⁻¹] | Labeling [%] (catalytic domain of Pin1; [3]) | EC50 (MDA-MB-231 cells; Homo sapiens) [µM] |
| --- | --- | --- | --- | --- | --- | --- | --- |
| Cc1ccsc1CN(C(=O)CCl)C1CCS(=O)(=O)C1 (stereo not drawn) [Pin1-2-8] | 0.133 | 52 | 5.1 | −6.66 | 2.19e-07 | – | – |
| O=C(CCl)N(CC1CCCCC1)C1CCS(=O)(=O)C1 (stereo not drawn) [Pin1-2-3, 2-chloro-N-(sulfolan-3-yl)-N-(cyclohexylmethyl)acetamide] | 0.046 | – | – | −6.82 | 1.53e-07 | 42 | 7.5 |
| O=C(CCl)N(Cc1ccccc1OCc1ccccc1)C1CCS(=O)(=O)C1 (stereo not drawn) [Pin1-2-7] | 0.039 | 37 | 6.1 | −6.99 | 1.02e-07 | – | – |
| O=C(CCl)N(Cc1cccs1)C1CCS(=O)(=O)C1 (stereo not drawn) [Pin1-433] | – | 45 | 8.9 | −6.67 | 2.13e-07 | – | – |
| CC(=O)c1cccc(-n2cc(CN(C(=O)CCl)C3CCS(=O)(=O)C3)nn2)c1 (stereo not drawn) [Compound P1-03-D08] | – | – | – | −5.92 | 1.2e-06 | 54 | – |
| O=C(CCl)N(C1CCS(=O)(=O)C1)C(Cc1ccccc1)c1ccccc1 (stereo not drawn) [Pin1-2-1] | 0.058 | 50 | 2.8 | −6.96 | 1.09e-07 | – | – |
| COC(=O)c1ccc(-n2cc(CN(C(=O)CCl)C3CCS(=O)(=O)C3)nn2)cc1 (stereo not drawn) [Compound P1-01-B11] | – | – | – | −6.86 | 1.37e-07 | 89 | – |
| COCCN(C(=O)CCl)C1CCS(=O)(=O)C1 (stereo not drawn) [Pin1-324] | – | 12 | – | −6.80 | 1.59e-07 | – | – |
| O=C(CCl)N(Cc1cn(-c2ccc(O)cc2)nn1)C1CCS(=O)(=O)C1 (stereo not drawn) [Compound P1-03-C04] | – | – | – | −6.42 | 3.78e-07 | 72 | – |
| CN(C)CCN(C(=O)CCl)C1CCS(=O)(=O)C1 (stereo not drawn) [Pin1-707] | – | 0 | – | −8.93 | 1.17e-09 | – | – |
| O=C(CCl)N(CC1CC1)C1CCS(=O)(=O)C1 (stereo not drawn) [Pin1-3-13] | 0.121 | – | – | −6.82 | 1.5e-07 | – | – |
| O=C(CCl)N(Cc1cn(-c2cccc(Cl)c2)nn1)C1CCS(=O)(=O)C1 (stereo not drawn) [Compound P1-01-G10] | – | – | – | −6.92 | 1.2e-07 | 67 | – |
| O=C1C=CC(=O)c2c(O)cccc21 [Juglone, 5-hydroxy-1,4-naphthalenedione, reference compound] | 1.75 | – | – | – | – | – | – |
| Cc1cccc(CN(C(=O)CCl)C2CCS(=O)(=O)C2)c1 (stereo not drawn) [Pin1-2-6] | 0.194 | 30 | 5.6 | −6.80 | 1.58e-07 | – | – |
| O=C(CCl)N(Cc1cccc(F)c1)C1CCS(=O)(=O)C1 (stereo not drawn) [Pin1-2-5] | – | 24 | – | −6.88 | 1.31e-07 | – | – |
| O=C(CCl)N(Cc1cccc(Cl)c1)C1CCS(=O)(=O)C1 (stereo not drawn) [Pin1-2-11] | – | 19 | – | −6.94 | 1.15e-07 | – | – |
| O=C(CCl)N(Cc1cn(-c2cc(Br)ccc2O)nn1)C1CCS(=O)(=O)C1 (stereo not drawn) [Compound P1-02-E11] | – | – | – | −5.98 | 1.04e-06 | 70 | – |
